Assay: Gas chromatographic headspace measurement of fragrance compounds with and without zinc ricinoleate
Assay type: physicochemical
Conditions: 100 ng of each fragrance chemical on a film of 0.5 g zinc ricinoleate; FIG. 4
Text: The effect of zinc ricinoleate [Zn(Ri)2] on the partitioning of compounds into the headspace. Headspace analysis is a sampling technique in which a nonvolatile matrix (liquid or solid) is heated and volatiles are collected as they partition (migrate) into the unfilled volume of the vial (headspace). These compounds are concentrated on an adsorbent tube then injected into the chromatograph where individual compounds are separated.
A sample of volatile compounds are placed into a vial, sealed, and heated for a period of time. The volatile compounds will migrate into the gas headspace. The more volatile the compound, the more concentrated it will be in the headspace. Conversely, the less volatile components will partition into the headspace to a lesser extent thus separating components of interest from the nonvolatile sample matrix (diaper).
For each test compound, 1 microliter of a 100 nanogram/microliter (ng/μl) solution (100 ng of each fragrance chemical) is put into a vial, warmed, purged, and volatiles concentrated in an adsorbent cartridge. The cartridge is desorbed into the GC where individual compounds are separated. A second set of each of the fragrance chemicals is prepared and added to a vial where 0.5 g zinc ricinoleate has been added. […]

zinc ricinoleate
effect on headspace volatility of fragrance chemicals: reduction of volatility

Source: patent US11925733B2, “Malodor counteractant composition and methods” (Bell Flavors & Fragrances, Inc., priority 2016, dated 2024)
